[Ψ] = pseudouridine; d = 2'-deoxy (DNA); r = 2'-OH (RNA)

The nature of data set [1]: Toxicity of LNP-siTOP1 and irinotecan on HCT116 cells (CCK-8 cell viability). As to conditions: human, HCT116 colon cancer cells, HCT116, 72 h. Format: cell-based, human. The procedure: (§1) After 72 h of transfection, 10 μL of CCK-8 solution was added to each well, and the cells were cultured in the incubator with 5% CO2 at 37° C. for another 4 h. The absorbance value at 450 nm was measured using a microplate reader. Cell viability was calculated according to the following formula: […]
(§2) On the day before transfection, HCT116 human colon cancer cells were seeded into a 96-well cell culture plate at 5000 cells/well, the culture medium being IMDM containing 10% FBS and 1% Penicillin-Streptomycin, and after plating, the cell culture plate was placed in an incubator with 5% CO2 at 37° C. for 24 h to allow the cells to adhere to the wall. 3 replicate wells were made for each group. On the day of transfection, the culture medium was changed to an IMDM culture medium without antibiotics (containing 10% FBS). LNP-siTOP1-1604 diluted with Opti-MEM culture medium was added, and the working concentrations of the siRNA were 500, 200, 100, 50, 20, and 5 nM. The control groups were Blank (Opti-MEM at the equal volume) and the positive control drug, irinotecan, at concentrations of 500, 200, 100, 50, 20, 5, and 1 μM. The cell culture plate was placed in the incubator with 5% CO2 at 37° C., and the cells were cultured for another 72 h. The cell viability was detected according to the method in Example 3 (Table 10). Fitting was performed using Graphpad software.

For data set [2], the system named is HCT116 human colon cancer cells. The description is as above. Format: cell-based. As to conditions: Homo sapiens, HCT-116; HCT116, 72 h, CCK-8. On the procedure: as §1, §2
Data set [3] relates to TOP1 mRNA. The data set is described as follows: Inhibitory effects of modified sequences of siTOP1-1604 on TOP1 mRNA in PC-3 cells. The data set is classed as cell-based, human. As to conditions: PC-3, siRNA 50 nM. On the procedure: PC-3 human prostate cancer cells were transfected with the modified siTOP1 according to the method in Example 2 at a siRNA working concentration of 50 nM. TOP1 mRNA levels were detected 48 h after the transfection. The control groups were Blank (Opti-MEM at the equal volume), Lipofectamine™ RNAiMAX (Lipo) transfection reagent, and the positive control unmodified siTOP-1604.

On to `CCc1c2c(nc3ccc(OC(=O)N4CCC(N5CCCCC5)CC4)cc13)-c1cc3c(c(=O)n1C2)COC(=O)[C@]3(O)CC` [Irinotecan], for which the viability at 72 h, 1 µM in data set [1] (1 μM) was determined as 109%. Besides, the viability at 72 h, 5 µM in data set [1] (5 μM) is 55.4%. Also, the viability at 72 h, 20 µM in data set [1] (20 μM) stood at 31.8%. In addition, the viability at 72 h, 50 µM in data set [1] (50 μM) was 16.9%. Further, the viability at 72 h, 100 µM in data set [1] (100 μM) is 9.69%. For the same compound, the viability at 72 h, 200 µM in data set [1] (200 μM) was 8.18%. Also, the viability at 72 h, 500 µM in data set [1] (500 μM) is 11.9%. In addition, the IC50 in data set [2] is 9.33 µM.
“siTOP1-1604-m4: Pseudouridine-modified siTOP1-1604; sense strand SEQ ID NO: 55, antisense strand SEQ ID NO: 56 (sense GUGUGGACAAGAUCCGGAATT; antisense UUCCGGAUCUUGUCCACACTT; sense: sugars from the 5' end r19 d2, [Ψ] at 2, 4, 13, backbone not given here; antisense: sugars from the 5' end r19 d2, [Ψ] at 1, 2, 8, 10, 11, 13, backbone not given here)”: the “Expression of TOP1 mRNA inhibited to” value in data set [3] (48 h, compared to the control groups) is 4.3%. The “Relative expression level, mean value” in data set [3] (48 h after transfection, Blank = 100.00) worked out at 4.30.

The values are drawn from patent publication US20260139254A1, “INTERFERING RNA FOR INHIBITING TOP1 GENE EXPRESSION AND USE THEREOF” (JENKEM TECHNOLOGY CO., LTD. (BEIJING), priority 2022, published 2026).
